In patent US11834448B2, “2-amino-quinoline derivatives” (BIRDIE BIOPHARMACEUTICALS, INC., priority 2017, dated 2023):

Tests used:
Human PBMCs [1] = experiment: Cytokine production in PBMCs: human IFN-α by ELISA; assay type: cell-based; parameters: key: ″+″ means that there was production of IFNa or IL-6 on PBMC; ″−″means that noproduction of IFNa or IL-6 on PBMC was detected; conditions: compounds tested at concentration of 10 uM; human PBMCs cultured 20-22 hours; supernatant ELISA
Description: (§1) The compound functionality was tested for some of the compounds prepared by stimulation and determination of cytokine production in PBMCs.
(§2) Human PBMCs were prepared from buffy coat obtained from healthy volunteer donor by Ficoll centrifugation and were adjusted to the final cell concentration to 1×10^6 cells/mL.
(§3) For evaluation of compound activities, 1×10^5 PBMCs were plated in a 96-well plate in 100 μl of RPMI 1640 complete medium (cat no. 31800-022, GIBCO by Life Technologies, Grand Island, NY, USA) supplemented with 10% fetal bovine serum, the tested compound was first dissolved in DMSO and further diluted in PBS and RPMI 1640 medium to the final concentration of […] (corresponding to 6.28 μg/mL), then 3-fold serially dilution was made in a 96-well round-bottom plate. 100 μl diluted compound was added to the same volume of 1×10^5 PBMCs plate and cultured for 20-22 hours at 37° C. in a humidified atmosphere of 5% CO2. The supernatant was collected for human IFN-α, IL12(p70) and IL-6 analysis by ELISA assay according to the manufacturer's instructions (Mabtech AB, Sweden). Resiquimod was used as a positive control.

Human PBMCs [2] = experiment: Cytokine production in PBMCs: human IL-6 by ELISA; assay type: cell-based; parameters: key: ″+″ means that there was production of IFNa or IL-6 on PBMC; ″−″means that noproduction of IFNa or IL-6 on PBMC was detected; conditions: compounds tested at concentration of 10 uM; human PBMCs cultured 20-22 hours; supernatant ELISA
Description: as §1, §2, §3

SMILES | Production of IFNa on PBMC (Human PBMCs [1]) | Production of IL−6 on PBMC (Human PBMCs [2])
CCOCc1nc2c(N)nc3cccc(OCC(C)O)c3c2[nH]1 (centres unmarked) [Compound 8, 1-((4-amino-2-(ethoxymethyl)-1H-imidazo[4,5-c]quinolin-9-yl)oxy)propan-2-ol] | + | +
CCOCc1nc2c(N)nc3cccc(OCCOC(C)C)c3c2[nH]1 [Compound 11, 2-(ethoxymethyl)-9-(2-isopropoxyethoxy)-1H-imidazo[4,5-c]quinolin-4-amine] | + | +
CCOCc1nc2c(N)nc3cccc(OCCC(C)(C)O)c3c2n1CC(C)C [Compound 12, 4-((4-amino-2-(ethoxymethyl)-1-isobutyl-1H-imidazo[4,5-c]quinolin-9-yl)oxy)-2-methylbutan-2-ol] | + | +
CCOCc1nc2c(N)nc3cccc(OC)c3c2n1CCOC(C)C [Compound 13, 2-(ethoxymethyl)-1-(2-isopropoxyethyl)-9-methoxy-1H-imidazo[4,5-c]quinolin-4-amine] | + | +
CCOCc1nc2c(N)nc3cccc(OC)c3c2n1CCC(C)(C)O [Compound 14, 4-(4-amino-2-(ethoxymethyl)-9-methoxy-1H-imidazo[4,5-c]quinolin-1-yl)-2-methylbutan-2-ol] | + | +
CCOCc1nc2c(N)nc3cccc(OCC(C)C)c3c2[nH]1 [Compound 15, 2-(ethoxymethyl)-9-isobutoxy-1H-imidazo[4,5-c]quinolin-4-amine] | + | +
CCOCc1nc2c(N)nc3cccc(OCCOC(C)C)c3c2n1C [Compound 16, 2-(ethoxymethyl)-9-(2-isopropoxyethoxy)-1-methyl-1H-imidazo[4,5-c]quinolin-4-amine] | + | +
CCOCc1nc2c(N)nc3cccc(OCCC(C)C)c3c2n1C [Compound 17, 2-(ethoxymethyl)-9-(isopentyloxy)-1-methyl-1H-imidazo[4,5-c]quinolin-4-amine] | + | +
CCOCc1nc2c(N)nc3cccc(OCC(C)C)c3c2n1C [Compound 18, 2-(ethoxymethyl)-9-isobutoxy-1-methyl-1H-imidazo[4,5-c]quinolin-4-amine] | + | +
CCOCc1nc2c(N)nc3cccc(OCCCNS(C)(=O)=O)c3c2n1C [Compound 19, N-(3-((4-amino-2-(ethoxymethyl)-1-methyl-1H-imidazo[4,5-c]quinolin-9-yl)oxy)propyl)methanesulfonamide] | + | +
CCOCc1nc2c(N)nc3cccc(OCCOCCNS(C)(=O)=O)c3c2n1C [Compound 20, N-(2-(2-((4-amino-2-(ethoxymethyl)-1-methyl-1H-imidazo[4,5-c]quinolin-9-yl)oxy)ethoxy)ethyl)-methanesulfonamide] | + | +
CCOCc1nc2c(N)nc3cccc(OCCCCNS(C)(=O)=O)c3c2n1C [Compound 22, N-(4-((4-amino-2-(ethoxymethyl)-1-methyl-1H-imidazo[4,5-c]quinolin-9-yl)oxy)butyl)methanesulfonamide] | + | +
CCCCCCCCCCCCCCCCCC(=O)NCCCOc1cccc2nc(N)c3nc(COCC)n(C)c3c12 [Compound 23, N-(3-((4-amino-2-(ethoxymethyl)-1-methyl-1H-imidazo[4,5-c]quinolin-9-yl)oxy)propyl)stearamide] | + | +
CCOCc1nc2c(N)nc3cccc(OCCCCNC(C)=O)c3c2n1C [Compound 24, N-(4-((4-amino-2-(ethoxymethyl)-1-methyl-1H-imidazo[4,5-c]quinolin-9-yl)oxy)butyl)acetamide] | + | +
CCCCCCCCCCCCCCCCCC(=O)NCCCCOc1cccc2nc(N)c3nc(COCC)n(C)c3c12 [Compound 25, N-(4-((4-amino-2-(ethoxymethyl)-1-methyl-1H-imidazo[4,5-c]quinolin-9-yl)oxy)butyl)-stearamide] | + | +
CCOCc1nc2c(N)nc3cccc(OC4CCOC4)c3c2n1C (centres unmarked) [Compound 27, 2-(ethoxymethyl)-1-methyl-9-((tetrahydrofuran-3-yl)oxy)-1H-imidazo[4,5-c]quinolin-4-amine] | + | +
CCOCc1nc2c(N)nc3cccc(OC4CCNC4)c3c2n1C (centres unmarked) [Compound 28, 2-(ethoxymethyl)-1-methyl-9-(pyrrolidin-3-yloxy)-1H-imidazo[4,5-c]quinolin-4-amine] | + | +
CCOCc1nc2c(N)nc3cccc(OC4CCNCC4)c3c2n1C [Compound 29, 2-(ethoxymethyl)-1-methyl-9-(piperidin-4-yloxy)-1H-imidazo[4,5-c]quinolin-4-amine] | + | +
CC(C)CCn1cc2c(n1)c(N)nc1cccc(O)c12 [Compound 31, 4-amino-2-isopentyl-2H-pyrazolo[3,4-c]quinolin-9-ol] | − | −
CC(C)CCOc1cccc2nc(N)c3nn(CCC(C)C)cc3c12 [Compound 32, 2-isopentyl-9-(isopentyloxy)-2H-pyrazolo[3,4-c]quinolin-4-amine] | − | −
CCCCn1cc2c(n1)c(N)nc1cccc(OCCC(C)C)c12 [Compound 33, 2-butyl-9-(isopentyloxy)-2H-pyrazolo[3,4-c]quinolin-4-amine] | − | +
CCCCCCCCCCCCCCCC(=O)NCCCOc1cccc2nc(N)c3nc(COCC)n(C)c3c12 [Compound 34, N-(3-((4-amino-2-(ethoxymethyl)-1-methyl-1H-imidazo[4,5-c]quinolin-9-yl)oxy)propyl)palmitamide] | + | +
CCCCCCCCCCCCCCCC(=O)NCCCCOc1cccc2nc(N)c3nc(COCC)n(C)c3c12 [Compound 35, N-(4-((4-amino-2-(ethoxymethyl)-1-methyl-1H-imidazo[4,5-c]quinolin-9-yl)oxy)butyl)palmitamide] | + | +
CCOCc1nc2c(N)nc3cccc(OCCCN)c3c2n1C [Compound 36, 9-(3-aminopropoxy)-2-(ethoxymethyl)-1-methyl-1H-imidazo[4,5-c]quinolin-4-amine] | + | +
CCOCc1nc2c(N)nc3cccc(OC(C)C)c3c2n1C [Compound 37, 2-(ethoxymethyl)-9-isopropoxy-1-methyl-1H-imidazo[4,5-c]quinolin-4-amine] | + | +
CCOCc1nc2c(N)nc3cccc(OCC(C)(C)O)c3c2n1C [Compound 38, 1-((4-amino-2-(ethoxymethyl)-1-methyl-1H-imidazo[4,5-c]quinolin-9-yl)oxy)-2-methylpropan-2-ol] | + | +
CCOCc1nc2c(N)nc3cccc4c3c2n1CCO4 [Compound 39, 2-(ethoxymethyl)-3,4-dihydro-5-oxa-1,2a,9-triazanaphtho[2,1,8-cde]azulen-10-amine] | + | +
CCOCc1nc2c(N)nc3cccc4c3c2n1C[C@](C)(O)CO4 [Compound 42, (S)-2-amino-12-(ethoxymethyl)-6-methyl-6,7-dihydro-5H-3,4-(azenometheno)[1,5]oxazocino[4,3,2-de]quinolin-6-ol] | + | +
